Assay results: patent US8481459B2, “Chemical inhibitors of ethylene biosynthesis” (Academia Sinica, priority 2010, dated 2013)

System: gene expression in etiolated eto1-4 seedlings
Test: Transcriptional profiling (ATH1 GeneChip microarray) of etiolated eto1-4 seedlings
Type: in vivo, Arabidopsis thaliana
Protocol: For chemical treatments, seeds were sown on 0.5×MS agar medium supplemented with 10 μM chemicals (AVG, compounds 9393, 9370, and 7303) or DMSO (as control). Arabidopsis seeds were stratified in the dark at 4° C. for 4 days, then germinated in the dark for 3 days at 22° C. Approximately 2,000 etiolated seedlings of the wild type or eto1-4 were used to collect tissues for preparation of total RNA in each microarray experiment with Arabidopsis ATH1 GeneChip (Affymetrix). Extraction of RNA followed an established protocol (Chang, et al. (1993) Plant Mol. Biol. Rep. 11, 113-117). Total RNA (10 μg) was used to prepare biotinylated cRNA for hybridization to ATH1 GeneChip in the experiments disclosed herein. Experiments were repeated by 2 independent biological duplicates, and candidate genes present in both experiments were selected for further analysis. The MASS method was used for data analysis and normalization by all sample medium. Candidate genes were selected by the following criteria. First, genes with 1.5-fold differential expression between the wild type and eto1-4 were selected as the master gene pool, which was then used for comparison in treatments with AVG and individual exemplary compounds. Data were presented in hierarchical clustering and Venn diagram format. Agilent GeneSpring GX and Bioconductor software were used to analyze the expression profile data. Gene Ontology descriptions were generated by GeneSpring GX and further referred to the TAR GO database. Raw data are available in the GEO database (http://www.ncbi.nlm.nih.gov/geo) with Accession no. GSE20897.
The filtered and normalized expression data set from 22810 probes on the ATH1 Genechip was used for hierarchical clustering of gene expression profiles for comparison between AVG and the exemplary invention compounds in eto1-4. It was identified that 1,446 genes show at least 1.5-fold difference in expression between the WT and eto1-4 and used them as the master gene pool for clustering analysis (FIG. 7A). […] These genes likely contribute to the etiolated phenotype of eto1-4 by responding to elevated endogenous ethylene. To determine whether the exemplary compounds have specific r overlapping functions with AVG to suppress the eto1-4 phenotype, genes that are regulated by individual exemplary invention compounds and AVG for Venn diagram analysis were clustered (FIG. 7B). More than 63% of genes (356/561 for compound 9393; 389/561 for compound 9370; 399/561 for compound 7303; FIG. 7B) with expression associated with AVG were co-regulated by the exemplary invention compounds, which indicates an overlap function in suppression of the ethylene phenotype in eto1-4. […] Next genes co-regulated by all of the exemplary invention compounds and AVG were examined by performing a clustering analysis using the co-regulated genes identified in FIG. 7B: 356 (compound 9393 vs AVG), 389 (compound 9370 vs AVG) and 399 genes (compound 7303 vs AVG). It was uncovered that 276 genes were co-regulated by all of the exemplary invention compounds and AVG (FIG. 7C and Table 2). On the basis of GO descriptions generated by Gene Spring GX and TAIR database, the 276 genes were divided into subgroups related to their biological functions (Table 2). […] In addition, stress- and pathogenesis-related genes were among the co-regulated genes, possibly because ethylene is involved in both biotic and abiotic stresses.
Genes (1446 non-redundant loci) were selected by 1.5-fold differential expression between eto1-4 and WT as the master pool for analysis. These genes were used for comparison between chemical treatments by AVG and the exemplary invention compounds. The finalized 276 genes that are co-regulated by AVG and all of the exemplary invention compounds are shown. Locus ID also present in Nemhauser et al. (Nemhauser, et al. (2006) Cell 126, 467-475).

[1] = of 1446 genes differentially expressed between WT and eto1-4, 10 μM
[2] = ratio eto1-4 treated to eto1-4 (no treatment)

CC1(C)CC(=O)c2cnc(NC3CCCC3)nc2C1 [Compound 9393]
number of genes co-regulated with AVG (of 561 genes associated with AVG, 10 μM): 356 genes | number of genes regulated (expression reverted close to WT) [1]: 629 genes | percentage of genes regulated (expression reverted close to WT) [1]: 43.5% | number of genes regulated specifically, not related to AVG treatment (of all genes regulated by the compound (629, 728, 650), 10 μM): 273 genes | Signal Fold Change AT1G03457, unknown biological function [2]: 2.24 | Signal Fold Change AT1G03660, unknown biological function [2]: 1.84 | Signal Fold Change AT1G05010 ACC oxidase [2]: 0.28 | Signal Fold Change AT1G05760 jacalin lectin protein [2]: 2.69 | Signal Fold Change AT1G06720 expressed protein [2]: 1.15 | Signal Fold Change AT1G07280, unknown biological function [2]: 0.44 | Signal Fold Change AT1G07560 leucine-rich repeat protein kinase [2]: 2.23 | Signal Fold Change AT1G08650 phosphoenolpyruvate carboxylase kinase [2]: 1.96 | Signal Fold Change AT1G08990 glycogenin glucosyltransferase [2]: 1.61 | Signal Fold Change AT1G09530 phytochrome interacting factor 3 [2]: 0.35 | Signal Fold Change AT1G10760 starch excess protein (SEX1) [2]: 0.46 | Signal Fold Change AT1G13430, response to cytokinin stimulus, sulfotransferase protein [2]: 0.38 | Signal Fold Change AT1G14540 anionic peroxidase [2]: 0.46 | Signal Fold Change AT1G15380 lactoylglutathione lyase [2]: 1.96 | Signal Fold Change AT1G17970, unknown biological function [2]: 2.17 | Signal Fold Change AT1G18880 proton-dependent oligopeptide transport (POT) protein [2]: 2.00 | Signal Fold Change AT1G20190, cell wall organization and biogenesis, expansin (EXP11) [2]: 0.43 | Signal Fold Change AT1G22740 Ras-related protein (RAB7) [2]: 2.34 | Signal Fold Change AT1G23060, unknown biological function [2]: 0.40 | Signal Fold Change AT1G26930, unknown biological function [2]: 0.50 | Signal Fold Change AT1G27380 p21-rho-binding domain-containing protein [2]: 2.10 | Signal Fold Change AT1G29520, unknown biological function [2]: 1.83 | Signal Fold Change AT1G30750, unknown biological function [2]: 2.23 | Signal Fold Change AT1G31710 copper amine oxidase [2]: 3.17 | Signal Fold Change AT1G32410 vacuolar protein sorting 55 protein [2]: 1.62 | Signal Fold Change AT1G32560 late embryogenesis abundant group 1 domain-containing protein [2]: 1.35 | Signal Fold Change AT1G33470, unknown biological function [2]: 2.32 | Signal Fold Change AT1G33790, unknown biological function [2]: 0.20 | Signal Fold Change AT1G34040, unknown biological function [2]: 1.69 | Signal Fold Change AT1G35350, unknown biological function [2]: 3.85 | Signal Fold Change AT1G35612, unknown biological function [2]: 3.38 | Signal Fold Change AT1G42470, unknown biological function [2]: 4.11 | Signal Fold Change AT1G44800, unknown biological function [2]: 1.86 | Signal Fold Change AT1G44830 AP2-containing transcription factor [2]: 0.34 | Signal Fold Change AT1G48480 leucine-rich repeat trans-membrane protein kinase [2]: 2.65 | Signal Fold Change AT1G49660 expressed protein [2]: 0.38 | Signal Fold Change AT1G50560 cytochrome P450 [2]: 1.77 | Signal Fold Change AT1G52830 auxin-responsive protein [2]: 3.44 | Signal Fold Change AT1G56010 transcription activator NAC1 [2]: 2.29 | Signal Fold Change AT1G56020, unknown biological function [2]: 0.60 | Signal Fold Change AT1G58070, unknown biological function [2]: 2.13 | Signal Fold Change AT1G59590, unknown biological function [2]: 2.57 | Signal Fold Change AT1G59740 proton-dependent oligopeptide transport (POT) protein [2]: 0.46 | Signal Fold Change AT1G62290 aspartyl protease protein [2]: 0.32 | Signal Fold Change AT1G62510 lipid transfer protein [2]: 1.63 | Signal Fold Change AT1G62620, unknown biological function [2]: 2.65 | Signal Fold Change AT1G64200 V-ATPase E subunit [2]: 2.10 | Signal Fold Change AT1G65510, unknown biological function [2]: 2.13 | Signal Fold Change AT1G65920, unknown biological function [2]: 0.37 | Signal Fold Change AT1G66230 myb transcription factor (MYB20) [2]: 3.04 | Signal Fold Change AT1G67030 zinc finger (C2H2 type) protein [2]: 6.01 | Signal Fold Change AT1G68230, unknown biological function [2]: 2.42 | Signal Fold Change AT1G68520 zinc finger (B-box type) protein [2]: 2.45 | Signal Fold Change AT1G69570 Dof-type zinc finger-containing protein [2]: 3.88 | Signal Fold Change AT1G70210 cyclin delta-1 [2]: 3.05 | Signal Fold Change AT1G70850 Bet v I allergen protein [2]: 7.24 | Signal Fold Change AT1G70890 major latex protein [2]: 5.37 | Signal Fold Change AT1G71030 myb transcription factor (MYB2) [2]: 4.86 | Signal Fold Change AT1G71740, unknown biological function [2]: 2.19 | Signal Fold Change AT1G72230 plastocyanin like protein [2]: 2.45 | Signal Fold Change AT1G73220 sugar transporter protein [2]: 2.95 | Signal Fold Change AT1G73300 serine carboxypeptidase S10 protein [2]: 1.94 | Signal Fold Change AT1G73310 serine carboxypeptidase S10 protein [2]: 2.66 | Signal Fold Change AT1G73330 protease inhibitor [2]: 2.84 | Signal Fold Change AT1G73590 auxin efflux carrier protein [2]: 2.02 | Signal Fold Change AT1G73640, small GTPase mediated signal transduction, Ras-related GTP-binding protein [2]: 1.94 | Signal Fold Change AT1G73830 bHLH protein [2]: 0.28 | Signal Fold Change AT1G75500, unknown biological function [2]: 3.12 | Signal Fold Change AT1G76220, unknown biological function [2]: 3.40 | Signal Fold Change AT1G76500, photomorphogenesis, DNA-binding protein [2]: 0.39 | Signal Fold Change AT1G76540 cell division control protein [2]: 2.16 | Signal Fold Change AT1G76790, unknown biological function [2]: 2.90 | Signal Fold Change AT1G78240 dehydration-responsive protein [2]: 0.49 | Signal Fold Change AT1G80380 phosphoribulokinase [2]: 2.17 | Signal Fold Change AT2G01910, microtubule nucleation, microtubule associated protein (MAP65/ASE1) protein [2]: 2.21 | Signal Fold Change AT2G02820 myb transcription factor (MYB88) [2]: 3.34 | Signal Fold Change AT2G02850 plantacyanin [2]: 0.27 | Signal Fold Change AT2G16580 auxin-responsive protein [2]: 2.33 | Signal Fold Change AT2G16990, unknown biological function [2]: 2.49 | Signal Fold Change AT2G19590 ACC oxidase [2]: 0.29 | Signal Fold Change AT2G19970, unknown biological function [2]: 2.19 | Signal Fold Change AT2G20080, unknown biological function [2]: 4.77 | Signal Fold Change AT2G20670, unknown biological function [2]: 2.36 | Signal Fold Change AT2G21820, unknown biological function [2]: 1.08 | Signal Fold Change AT2G21880 Ras-related GTP-binding protein [2]: 3.83 | Signal Fold Change AT2G22860 phytosulfokines 2 (PSK2) [2]: 2.20 | Signal Fold Change AT2G24150 expressed protein (response to hormone stimulus) [2]: 2.23 | Signal Fold Change AT2G25900 zinc finger (CCCH-type) protein [2]: 1.27 | Signal Fold Change AT2G26070 expressed protein (response to ethylene stimulus) [2]: 0.32 | Signal Fold Change AT2G26440 pectinesterase protein [2]: 0.36 | Signal Fold Change AT2G26740 epoxide hydrolase [2]: 0.29 | Signal Fold Change AT2G27140 heat shock protein [2]: 2.32 | Signal Fold Change AT2G27370, unknown biological function [2]: 1.90 | Signal Fold Change AT2G28305, unknown biological function [2]: 2.70 | Signal Fold Change AT2G28410, unknown biological function [2]: 2.86 | Signal Fold Change AT2G29340 short-chain dehydrogenase [2]: 0.47 | Signal Fold Change AT2G29440, toxin catabolic process, glutathione S-transferase [2]: 0.31 | Signal Fold Change AT2G30360 CBL-interacting protein kinase 11 (CIPK11) [2]: 1.81 | Signal Fold Change AT2G33380 calcium-binding RD20 protein [2]: 0.26 | Signal Fold Change AT2G33990, unknown biological function [2]: 2.38 | Signal Fold Change AT2G34300, unknown biological function [2]: 0.40 | Signal Fold Change AT2G34500 cytochrome P450 [2]: 3.82 | Signal Fold Change AT2G34510, unknown biological function [2]: 2.66 | Signal Fold Change AT2G34700, unknown biological function [2]: 1.10 | Signal Fold Change AT2G35300 late embryogenesis abundant group 1 domain-containing protein [2]: 1.93 | Signal Fold Change AT2G35710 glycogenin glucosyltransferase [2]: 2.39 | Signal Fold Change AT2G36350 protein kinase [2]: 0.54 | Signal Fold Change AT2G36410, unknown biological function [2]: 2.46 | Signal Fold Change AT2G37130 peroxidase 21 [2]: 1.93 | Signal Fold Change AT2G38760, unknown biological function [2]: 2.89 | Signal Fold Change AT2G38790, unknown biological function [2]: 1.78 | Signal Fold Change AT2G39010 aquaporin [2]: 1.84 | Signal Fold Change AT2G39310, unknown biological function [2]: 1.97 | Signal Fold Change AT2G39980, unknown biological function [2]: 0.14 | Signal Fold Change AT2G40420 amino acid transporter [2]: 1.87 | Signal Fold Change AT2G41090, unknown biological function [2]: 0.26 | Signal Fold Change AT2G41230, unknown biological function [2]: 0.08 | Signal Fold Change AT2G42320, unknown biological function [2]: 0.55 | Signal Fold Change AT2G43050 pectinesterase protein [2]: 2.06 | Signal Fold Change AT2G43535 trypsin inhibitor [2]: 4.42 | Signal Fold Change AT2G44110 seven transmembrane MLO protein [2]: 0.45 | Signal Fold Change AT2G44130 kelch repeat containing F-box protein [2]: 3.36 | Signal Fold Change AT2G47510 fumarate hydratase [2]: 0.53 | Signal Fold Change AT2G47550 pectinesterase protein [2]: 0.39 | Signal Fold Change AT2G48030, unknown biological function [2]: 2.18 | Signal Fold Change AT3G04010 glycosyl hydrolase [2]: 2.09 | Signal Fold Change AT3G05990, signal transduction, phosphodiesterase leucine-rich repeat protein [2]: 2.05 | Signal Fold Change AT3G09020, unknown biological function [2]: 2.36 | Signal Fold Change AT3G09780 protein kinase [2]: 0.55 | Signal Fold Change AT3G10080, unknown biological function [2]: 2.22 | Signal Fold Change AT3G10340 phenylalanine ammonia-lyase [2]: 2.17 | Signal Fold Change AT3G11550, unknown biological function [2]: 2.20 | Signal Fold Change AT3G12030, DNA repair, expressed protein [2]: 1.73 | Signal Fold Change AT3G12500 basic endocexemplary inase [2]: 1.85 | Signal Fold Change AT3G13980, unknown biological function [2]: 6.83 | Signal Fold Change AT3G14370 protein kinase [2]: 0.30
